Test system: streptozotocin-induced diabetic rats
Assay: Effect of formulations on serum glucose level in diabetic rat model
Format: in vivo, male albino Wistar rats
Settings: S.C., 1 u/kg

## Insulin solution: Insulin solution, pH 3, given subcutaneously at 1 u/kg as reference
1 hr
  % Decrease in serum glucose level After 1 hr: 76.62 ± 1.08%
2 hr
  % Decrease in serum glucose level After 2 hr: 83.26 ± 2.56%
3 hr
  % Decrease in serum glucose level After 3 hr: 66.75 ± 5.39%
5 hr
  % Decrease in serum glucose level After 5 hr: 38.26 ± 3.60%
